Consider ten compounds from ChEMBL document CHEMBL4411295, “Discovery of novel nonsteroidal VDR agonists with novel diarylmethane skeleton for the treatment of breast cancer” (Eur J Med Chem, 2019).

The term inhibition denotes the share of the control response that was lost under treatment. For orientation: IC50 means the concentration that inhibits the measured activity by half.

Active and inactive are the calls of the source. The rule behind the calls is not given here.

Data set [1] deals with T1, Vitamin D3 receptor (Homo sapiens) (UniProt P11473).
T1 sequence (whole entry): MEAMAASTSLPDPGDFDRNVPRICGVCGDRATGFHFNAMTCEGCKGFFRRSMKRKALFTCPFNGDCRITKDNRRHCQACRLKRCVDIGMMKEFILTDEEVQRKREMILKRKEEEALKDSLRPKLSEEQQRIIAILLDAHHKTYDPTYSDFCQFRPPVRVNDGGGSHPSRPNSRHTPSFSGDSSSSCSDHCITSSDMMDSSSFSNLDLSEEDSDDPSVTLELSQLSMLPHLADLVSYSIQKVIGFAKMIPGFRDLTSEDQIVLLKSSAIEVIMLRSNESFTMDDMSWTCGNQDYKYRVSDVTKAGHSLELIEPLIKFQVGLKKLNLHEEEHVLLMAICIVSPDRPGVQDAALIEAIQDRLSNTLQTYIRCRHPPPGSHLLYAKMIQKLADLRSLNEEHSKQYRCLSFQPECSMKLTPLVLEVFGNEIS
Nature of the data set: Binding affinity at VDR (unknown origin) assessed as relative VDR-probe inhibition at 1 uM by fluorescence polarization assay relative to 1,25(OH)2D3.

In data set [2] the test system is MCF7. Nature of the data set: Antiproliferative activity against human MCF7 cells after 24 hrs by MTT assay. It is filed as functional, cell-based. Conditions: MCF7, 24 h. Background: Tetrazolium assays rely on reduction of a dye to a coloured formazan, in cell work by metabolically active cells.
Data set [3] has as its system MCF7. Nature of the data set: Induction of apoptosis in human MCF7 cells assessed as increase in p21 expression at 0.5 uM after 24 hrs by qPCR analysis. It is filed as functional, cell-based. For orientation: Quantitative PCR measures a nucleic acid by following its amplification.
Data set [4] deals with MCF7. Nature of the data set: Induction of apoptosis in human MCF7 cells assessed as increase in p21 level at 0.5 uM after 24 hrs by Western blot analysis. The data set is classed as functional, cell-based.
Data set [5] concerns MCF7. Nature of the data set: Induction of apoptosis in human MCF7 cells assessed as reduction in Bcl2 expression at 0.5 uM after 24 hrs by qPCR analysis. The data set is classed as functional, cell-based.
Data set [6] deals with MCF7. The data set can be described thus: Induction of apoptosis in human MCF7 cells assessed as reduction in Bcl2 level at 0.5 uM after 24 hrs by Western blot analysis. It is filed as functional, cell-based. (A western blot detects proteins with antibodies after separation by electrophoresis.)
In data set [7] the test system is MCF7. The data set can be described thus: Induction of apoptosis in human MCF7 cells assessed as increase in Bax expression at 0.5 uM after 24 hrs by qPCR analysis. It is filed as functional, cell-based.
For data set [8], the system named is MCF7. The data set can be described thus: Induction of apoptosis in human MCF7 cells assessed as increase in Bax level at 0.5 uM after 24 hrs by Western blot analysis. The data set is classed as functional, cell-based.
The test system of data set [9] is MCF7. The data set can be described thus: Induction of apoptosis in human MCF7 cells at 0.5 uM after 48 hrs by Annexin V-FITC/propidium iodide staining-based flow cytometric analysis. It is filed as functional, cell-based.
Data set [10] concerns L02. The data set can be described thus: Cytotoxicity against human LO2 cells assessed as reduction in cell viability after 24 hrs by MTT assay. It is filed as cell-based. Conditions: L02, 24 h.
Data set [11] has as its system MCF7. The data set can be described thus: Induction of apoptosis in human MCF7 cells assessed as early apoptotic cells at 1 uM after 48 hrs by Annexin V-FITC/propidium iodide staining-based flow cytometric analysis (reference value: 3.80%). The data set is classed as functional.
Data set [12] relates to MCF7. Nature of the data set: Induction of apoptosis in human MCF7 cells assessed as late apoptotic cells at 1 uM after 48 hrs by Annexin V-FITC/propidium iodide staining-based flow cytometric analysis (reference value: 1.61%). The data set is classed as functional.
The subject of data set [13] is MCF7. The data set can be described thus: Induction of apoptosis in human MCF7 cells assessed as necrotic cells at 1 uM after 48 hrs by Annexin V-FITC/propidium iodide staining-based flow cytometric analysis (reference value: 0.29%). It is filed as functional.
In data set [14] the test system is MCF7. Nature of the data set: Induction of apoptosis in human MCF7 cells assessed as viable cells at 1 uM after 48 hrs by Annexin V-FITC/propidium iodide staining-based flow cytometric analysis (reference value: 94.3%). The data set is classed as functional. Conditions: MCF7, 48 h, read-out: Activity.
Data set [15] relates to MCF7. The data set can be described thus: Cell cycle arrest in human MCF7 cells assessed as accumulation at G0/G1 phase at 1 uM after 24 hrs by propidium iodide staining based flow cytometric analysis (reference value: 56.64%). It is filed as functional.
Data set [16] has as its system MCF7. Nature of the data set: Cell cycle arrest in human MCF7 cells assessed as accumulation at G2/M phase at 1 uM after 24 hrs by propidium iodide staining based flow cytometric analysis (reference value: 12.04%). It is filed as functional.
Data set [17] deals with MCF7. Nature of the data set: Cell cycle arrest in human MCF7 cells assessed as accumulation at S phase at 1 uM after 24 hrs by propidium iodide staining based flow cytometric analysis (reference value: 31.32%). The data set is classed as functional.
For data set [18], the system named is MCF7. Nature of the data set: Antitumor activity against human MCF7 cells xenografted in BALB/C nude mouse assessed as reduction in tumor volume at 0.5 ug/kg, ip administered 3 times per week. The data set is classed as functional, organism-based.
Data set [19] deals with Mus musculus. The data set can be described thus: Hypercalcemic effect in BALB/C nude mouse xenografted with human MCF7 cells at 0.5 ug/kg, ip administered 3 times per week measured after 15 days. It is filed as ADME, organism-based. Conditions: in vivo, 0.0005 mg/kg, 360 h.

For `CCN(CC)CCNC(=O)c1cc(C(CC)(CC)c2ccc(C#CC3(O)CCCCC3)c(C)c2)cn1CC`, in data set [1], the inhibition is 44.2%. This compound had an IC50 in [2] of 3.07 µM.

As to `CCCC(O)(C#Cc1ccc(C(CC)(CC)c2cc(C(=O)NCCN(CC)CC)n(CC)c2)cc1C)CCC`, the inhibition in data set [1] amounted to 51.1%. Also, the result in [3], in data set [4], in data set [5], in data set [6], in data set [7] and in [8] was Active.

As to `CCN(CC)CCNC(=O)c1ccc(C(CC)(CC)c2ccc(C#CC(C)(C)O)c(C)c2)n1CC`, the inhibition in [1] worked out at 60.2%. Besides, the outcome in data set [3], in data set [4], in [5], in data set [6], in data set [7] and in data set [8] was Active.

`CCN(CC)CCNC(=O)c1ccc(C(CC)(CC)c2ccc(C#CC(C)(O)CC)c(C)c2)n1CC` (configuration not stated): the inhibition in data set [1] worked out at 63.4%. Further, the outcome in [9], in [3], in [4], in [5], in [6] and in data set [7] was Active. Moreover, the outcome in data set [8] was Active.

Consider `CCN(CC)CCNC(=O)c1cc(C(CC)(CC)c2ccc(C#CC3(O)CCC3)c(C)c2)cn1CC`, for which, in [1], the inhibition stood at 49.3%. Further, the 50% inhibitory concentration (IC50) is 1.28 µM in data set [2] and greater than 50 µM in data set [10]. Moreover, the result in [3], in data set [4], in [5], in data set [6], in data set [7] and in data set [8] was Active.

As for `CCCC(O)(C#Cc1ccc(C(CC)(CC)c2ccc(C(=O)NCCN(CC)CC)n2CC)cc1C)CCC`, in data set [1], the inhibition was found to be 52.1%.

As to `CCN(CC)CCNC(=O)c1cc(C(CC)(CC)c2ccc(C#CC(C)(O)CC)c(C)c2)cn1CC` (configuration not stated), the inhibition in data set [1] is 59.2%.

Turning to `C=C1/C(=C\C=C2/CCC[C@]3(C)[C@@H]([C@H](C)CCCC(C)(C)O)CC[C@@H]23)C[C@@H](O)C[C@@H]1O` [CALCITRIOL], the Activity in data set [11] worked out at 14%; in [12] it was 3.88%; in data set [13] it was 0.4%; in data set [15], 70.33%; in data set [16], 4.11%; in data set [17] it was 25.56%. In addition, the Activity result in data set [19] was “Toxic”. Besides, the viability at 1 µM in [14] worked out at 81.8%. In addition, in data set [18], the outcome was inactive.

For `C=C1/C(=C\C=C2/CCC[C@]3(C)[C@@H]([C@H](C)/C=C/[C@@H](O)C4CC4)CC[C@@H]23)C[C@@H](O)C[C@@H]1O` [CALCIPOTRIENE], the Activity in data set [11] is listed as 15.1%; in [12] it was 3.77%; in [13], 0.31%; in [15], 63%; in data set [16], 12.55%; in data set [17], 24.45%. Also, in [14], the viability at 1 µM amounted to 80.8%.

With `CCN(CC)CCNC(=O)c1cc(C(CC)(CC)c2ccc(C#CC(C)(C)O)c(C)c2)cn1CC`, the inhibition in data set [1] is 56.3%.
